From patent US20040152708A1, “Trans-9,10-dehydroepothilone C and D, analogs thereof and methods of making the same” (priority 2002, published 2004)
Values after ≈ are worked out from the molar mass of the structure shown.

Tests used:
[1] = Half-life in human plasma; settings: fresh human plasma
Method: (§1) Half-lives of compounds in fresh mouse and human plasma were determined by dissolving the compounds in DMSO and adding aliquots to samples of mouse or human plasma. At Time Zero, aliquotted 75 μl from each sample and added 150 μl of acetonitrile. Centrifuged the white precipitate at 13500 rpm for 3 minutes. Transferred all the clear supernatant into another microcentrifuge tube and repeated the centrifuging step (13500 rpm/3 min). Carefully pipetted 150 μl of the clear supernatant into labeled HPLC sample tubes and tried to avoid pipetting any protein pellets. The samples were analyzed by HPLC to measure remaining compound at each time point by comparison with authentic standards.

[2] = tested on: Human breast carcinoma cell line MCF-7; experiment: SRB cytotoxicity assay, MCF-7; type: cell-based; settings: Homo sapiens, MCF7, 72 h; Table 1; 3 days, SRB; read-out: IC50 MCF-7
Method: (§2) Compounds of the invention may be screened for cytotoxicity using conventional assays well known to those skilled in the art. For example, cytotoxicity of the compounds may be determined by the SRB assay as disclosed in Skehan et al., J. Natl. Cancer Inst. 82:1107-1112 (1990), which is incorporated herein by reference. In the SRB assay, the following cultured cells are trypsinized, counted and diluted to the following concentrations per 100 μl with growth medium: MCF-7, 5000; NCI/ADR-Res, 7500; NCI-H460, 5000; A549, 5000; Skov3, 7500; and SF-268, 7500. The cells are seeded at 100 μl/well in 96-well microtiter plates. Twenty-four hours later, 100 μl of a test epothilone compound of the invention (ranging in concentration from 1000 nM to 0.001 nM diluted in growth medium) is added to each well. After incubation, with the compound for a period of days, the cells are fixed with 100 μl of 10% trichloroacetic acid (“TCA”) at 4 degrees for 1 hour, and stained with 0.2% sulforhodamine B (SRB)/1% acetic acid, and the bound SRB is then extracted with 200 μl of 10 mM Tris base. The amount of bound dye is determined by OD 515 nm, which correlates to the total cellular protein contents. The data is analyzed using standard statistical methodologies (such as those available with the software sold as KALEIDA GRAPH® by Synergy Software of Reading, Pa.) and the IC50s are calculated.
(§3) Human breast carcinoma cell line MCF-7, multi-drug resistant breast carcinoma cell line NCI/ADR, were obtained from the National Cancer Institute. Human non-small cell lung cancer cell line A549 and human ovarian cancer cell line SKOV-3 were obtained from American Type Culture Collection (Manassas, Va.). All cell lines were maintained in RPMI-1640 medium (Gibco/BRL, Rockville, Md.) supplemented with 2 mM L-glutamine, 25 mM HEPES and 10% FBS (Hyclone, Logan, Utah). Cells were maintained in a humidified incubator at 37° C. in 5% CO2.
(§4) Tumor cells were seeded in 100 μl at 5000 (MCF-7), 7500 (NCI/ADR), 5000 (A549) and 7500 (SKOV3) cells per well in 96-well plates. Cells were allowed to adhere for 24 hours. Each compound ranging from 0.001 to 1000 nM in 100 μl was added to cells in duplicate wells. After 3 days, cells were fixed at 4° C. for 1 hour with 10% trichloroacetic acid and then stained with 0.2% sulforhodamine B (SRB)/1% acetic acid for 20 minutes at room temperature. The unbound dye was rinsed away with 1% acetic acid, and the bounded SRB was then extracted with 200 μl of 10 mM Tris base. The absorbance was measured at 515 nm using a 96-well microtiter plate reader (Spectra Max 250, Molecular Devices). The IC50 values were calculated using a KaleidaGraph program. The experiments were performed twice.

[3] = Compound solubility in phosphate-buffered saline; type: physicochemical; settings: aqueous buffer, kinetic from dmso stock; 5 μL of 20 mg/mL DMSO stock in 95 μL phosphate-buffered saline, 0.45 micron filter, HPLC
Method: Compound solubility was determined as follows: 5 μL of stock solution (at 20 mg/mL in DMSO) was added to 95 μL of phosphate-buffered saline. After being vortexed for about 10 seconds, the solution/suspension was filtered through a 0.45 micron filter and the amount of analyte was quantitated by HPLC. Solubilities (mg/mL) determined were as follows: epothilone D, <0.06; trans-9,10-dehydroepothilone D, <0.06; 21-OH-26-F3-trans-9,10-dehydroepothilone D, 0.1; 21-amino-trans-9,10-dehydroepothilone D, >0.6; 21-amino-26-F3-trans-9,10-dehydroepothilone D, >0.6; 26-F3-trans-9,10-dehydroepothilone D, <0.06; 21-OH-trans-9,10-dehydroepothilone D, 0.1; KOSN 1635, <0.02; KOSN 1632, 0.12.

CYP3A4 = target: T1, CYP3A4 (Homo sapiens, UniProt P08684); experiment: Cytochrome P450 inhibition (BD GenTest kit, BFC substrate), CYP3A4; type: in vitro ADME
T1 construct: purchased BD GenTest, Woburn, Mass
From the text: Following the procedure of Examples 39 (when R=methyl) and 42 (when R=CF3), the additional compounds shown in Table 2 were made by replacing (2-(tert-butyldimethyl-silyloxy)-methylthiazol-4-yl)methyltri-n-butyl-phosphonium chloride with the corresponding phosphonium chloride. Cytotoxicity data (Table 2) was obtained as described in Example 48. Cytochrome P450 inhibition data (Table 3) was obtained using the initial rate method against BFC substrate.
Cytochrome P450 inhibition measurements were performed using a commercially-available kit (BD GenTest, Woburn, Mass.), using BFC as substrate against CYP3A4.

[4] = Plasma protein binding (ultrafiltration); type: in vitro ADME; settings: mouse or human plasma (species not given), 37° C.
Method: Plasma protein binding studies were performed as follows. Compounds were dissolved in DMSO, then diluted into either fresh or thawed samples of mouse or human plasma and incubated at 37° C. Time points of 50 μL were mixed with 100 μl of acetonitrile and centrifuged at ˜14000 rpm for 3 minutes. A 100 μL aliquot was removed from the supernatant and set aside for analysis to indicate compound in the total fraction. The remaining supernatant was transferred onto a Microcon ultrafiltration device fitted with a YM10 membrane and centrifuged to separate protein-bound material. A 50 μL aliquot of the protein-free filtrate was mixed with 100 μL of acetonitrile, centrifuged at ˜14000 rpm for 3 minutes, then 100 μL of the supernatant was collected and analyzed to determine the amount of compound not protein bound. The amount of compound in the total sample and in the protein-free fraction were determined by HPLC analysis against authentic standards.

[5] = tested on: Human non-small cell lung cancer cell line A549; experiment: SRB cytotoxicity assay, A549; type: cell-based; settings: Homo sapiens, A549, 72 h; Table 1; 3 days, SRB; read-out: IC50 A549
Method: as §2, §3, §4

[6] = tested on: multi-drug resistant breast carcinoma cell line NCI/ADR; experiment: SRB cytotoxicity assay, NCI/ADR; type: cell-based, human; settings: Homo sapiens, NCI/ADR-RES, 72 h; Table 1; 3 days, SRB; read-out: IC50 NCI/ADR
Method: as §2, §3, §4

CYP2C19 = target: T2, CYP2C19 (Homo sapiens, UniProt P33261); experiment: Cytochrome P450 inhibition, CYP2C19; type: in vitro ADME; settings: human
T2 construct: purchased BD GenTest, Woburn, Mass

[7] = Half-life in mouse plasma; settings: fresh mouse plasma
Method: as §1, with “Half-lives of compounds in fresh mouse and human plasma were determined by dissolving the compounds in DMSO and adding aliquots to samples of mouse or human plasma.” left out

[8] = tested on: human ovarian cancer cell line SKOV-3; experiment: SRB cytotoxicity assay, SKOV3; type: cell-based; settings: Homo sapiens, SK-OV-3, 72 h; Table 1; 3 days, SRB; read-out: IC50 SKOV3
Method: as §2, §3, §4

CYP2C9 = target: T3, CYP2C9 (Homo sapiens, UniProt P11712); experiment: Cytochrome P450 inhibition, CYP2C9; type: in vitro ADME; settings: human
T3 construct: purchased BD GenTest, Woburn, Mass
T3 sequence (P11712 whole entry): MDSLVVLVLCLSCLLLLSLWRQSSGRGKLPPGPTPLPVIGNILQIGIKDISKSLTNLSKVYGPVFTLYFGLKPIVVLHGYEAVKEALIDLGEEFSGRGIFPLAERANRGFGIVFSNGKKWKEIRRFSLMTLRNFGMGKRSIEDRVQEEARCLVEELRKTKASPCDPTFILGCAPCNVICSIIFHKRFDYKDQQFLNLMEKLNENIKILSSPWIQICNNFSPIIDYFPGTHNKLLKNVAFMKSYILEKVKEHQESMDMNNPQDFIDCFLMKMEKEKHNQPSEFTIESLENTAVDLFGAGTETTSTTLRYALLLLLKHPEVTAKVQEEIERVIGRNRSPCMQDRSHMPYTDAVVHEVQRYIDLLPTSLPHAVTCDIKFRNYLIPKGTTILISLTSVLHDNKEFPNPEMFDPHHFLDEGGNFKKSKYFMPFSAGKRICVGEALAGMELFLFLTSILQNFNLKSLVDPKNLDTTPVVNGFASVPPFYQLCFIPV

T1 sequence (P08684 whole entry): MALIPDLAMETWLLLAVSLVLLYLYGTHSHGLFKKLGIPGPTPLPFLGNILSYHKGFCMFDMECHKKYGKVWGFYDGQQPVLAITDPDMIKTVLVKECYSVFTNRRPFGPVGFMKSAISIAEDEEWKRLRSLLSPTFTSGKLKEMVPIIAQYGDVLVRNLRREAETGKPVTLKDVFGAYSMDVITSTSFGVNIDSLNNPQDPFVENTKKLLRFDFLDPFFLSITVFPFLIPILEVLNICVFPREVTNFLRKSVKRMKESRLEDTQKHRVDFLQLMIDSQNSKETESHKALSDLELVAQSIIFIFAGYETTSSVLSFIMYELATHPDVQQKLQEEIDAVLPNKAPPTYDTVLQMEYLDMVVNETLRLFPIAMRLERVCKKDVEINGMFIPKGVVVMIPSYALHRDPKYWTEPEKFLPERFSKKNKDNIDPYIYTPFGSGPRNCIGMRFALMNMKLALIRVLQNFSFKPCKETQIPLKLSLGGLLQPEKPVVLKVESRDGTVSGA
T2 sequence (P33261 whole entry): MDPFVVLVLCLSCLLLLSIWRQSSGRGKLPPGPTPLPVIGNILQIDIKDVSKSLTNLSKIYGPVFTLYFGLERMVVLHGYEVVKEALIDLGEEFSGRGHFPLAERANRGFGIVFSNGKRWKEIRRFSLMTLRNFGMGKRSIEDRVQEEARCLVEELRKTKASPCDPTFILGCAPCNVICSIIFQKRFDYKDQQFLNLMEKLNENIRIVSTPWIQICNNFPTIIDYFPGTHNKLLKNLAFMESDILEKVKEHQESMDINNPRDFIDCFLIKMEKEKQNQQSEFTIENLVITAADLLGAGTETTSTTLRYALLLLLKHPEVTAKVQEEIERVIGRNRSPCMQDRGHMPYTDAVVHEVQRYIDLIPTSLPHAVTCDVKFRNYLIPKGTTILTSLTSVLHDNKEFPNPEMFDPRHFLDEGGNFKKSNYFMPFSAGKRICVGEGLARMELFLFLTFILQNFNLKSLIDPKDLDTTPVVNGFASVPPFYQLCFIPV

Row | SMILES | half-life [1] | IC50 [2] | solubility [3] | IC50 (CYP3A4) | percentage of compound protein bound [4] | IC50 [5] | IC50 [6] | IC50 (CYP2C19) | half-life [7] | IC50 [8] | IC50 (CYP2C9)
1 | C/C1=C/C[C@@H](/C(C)=C/c2ccccn2)OC(=O)C[C@H](O)C(C)(C)C(=O)[C@H](C)[C@@H](O)[C@@H](C)/C=C/C1 [KOSN 1632, 17-des(2-methyl-4-thiazolyl)-17-(2-pyridyl)-9,10-dehydropeothilone D] | > 24 h | 0.87 nM | 120 µg/mL (≈ 256 µM) | 2520 nM | 89.4% | 3.3 nM | 4.6 nM | 3050 nM | 0.467 h | 4.4 nM | 15000 nM
2 | C/C1=C/C[C@@H](/C(C)=C/c2nc3ccccc3s2)OC(=O)C[C@H](O)C(C)(C)C(=O)[C@H](C)[C@@H](O)[C@@H](C)/C=C/C1 [KOSN 1635, 17-des(2-methyl-4-thiazolyl)-17-(2-benzothiazolyl)-9,10-dehydropeothilone D] | > 24 h | 1.1 nM | < 20 µg/mL | 3120 nM | 99.7% | 4.2 nM | 5.6 nM | 3270 nM | 0.967 h | 3.4 nM | 4100 nM
3 | C/C1=C/C[C@@H](/C(C)=C/c2csc(CN)n2)OC(=O)C[C@H](O)C(C)(C)C(=O)[C@H](C)[C@@H](O)[C@@H](C)/C=C/C1 [21-NH2 9,10-dehydroepothilone D, 21-amino-9,10-dehydro-epothilone D] | > 24 h | 3.2 nM | > 600 µg/mL | 610 nM | 89.5% | 5.9 nM | 25 nM | 630 nM | 0.983 h | 5.7 nM | 830 nM
4 | C/C(=C\c1csc(CO)n1)[C@@H]1C/C=C(/C(F)(F)F)C/C=C/[C@H](C)[C@H](O)[C@@H](C)C(=O)C(C)(C)[C@@H](O)CC(=O)O1 [21-hydroxy-9,10-dehydro-26-trifluoroepothilone D] | > 24 h | 3.6 nM | 100 µg/mL (≈ 179 µM) | 1000 nM | 92.8% | 6.1 nM | 65 nM | 20500 nM | 6.32 h | 7.9 nM | 17300 nM
5 | C/C1=C/C[C@@H](/C(C)=C/c2csc(CO)n2)OC(=O)C[C@H](O)C(C)(C)C(=O)[C@H](C)[C@@H](O)[C@@H](C)/C=C/C1 [21-OH 9,10-dehydroepothilone D, 21-hydroxy-9,10-dehydro-epothilone D] | > 24 h | 2.3 nM | 100 µg/mL (≈ 198 µM) | 800 nM | 94.2% | 3.8 nM | 14 nM | 5600 nM | 17.6 h | 5.7 nM | 22000 nM
